Test results taken from PMC4111509 (PLoS ONE, 2014).

Experiments:
Assay in all cases: HPLC-UV product detection
Assay type in all cases: biochemical
Details in all cases: AdoMet co-substrate
NpN4OMT2 = biological target: T1, NpN4OMT2 (Narcissus aff. pseudonarcissus MK-2014, UniProt A0A077EW86)
T1 construct: gene N4OMT2; full length, N-terminal His tag (pET28a), E. coli, purified

NpN4OMT4 = biological target: T2, NpN4OMT4 (Narcissus aff. pseudonarcissus MK-2014, UniProt A0A077ES70)
T2 construct: gene N4OMT4; full length, N-terminal His tag (pET28a), E. coli, purified
T2 sequence (A0A077ES70 whole entry): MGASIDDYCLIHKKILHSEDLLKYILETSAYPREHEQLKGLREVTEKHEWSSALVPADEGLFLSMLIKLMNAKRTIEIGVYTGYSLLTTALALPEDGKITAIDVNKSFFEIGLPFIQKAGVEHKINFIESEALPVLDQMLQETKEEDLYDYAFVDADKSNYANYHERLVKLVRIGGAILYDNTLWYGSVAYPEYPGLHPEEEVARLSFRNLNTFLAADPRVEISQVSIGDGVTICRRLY

NpN4OMT5 = biological target: T3, NpN4OMT5 (Narcissus aff. pseudonarcissus MK-2014, UniProt A0A077ESS0)
T3 construct: gene N4OMT5; full length, N-terminal His tag (pET28a), E. coli, purified
T3 sequence (A0A077ESS0 whole entry): as the sequence (A0A077ES70 whole entry) above, with I67L counted along it

T1 sequence (A0A077EW86 whole entry): as the sequence (A0A077ES70 whole entry) above, with C9S, I11V, K14N, I67L counted along it

Oc1ccc(CCNCc2ccc(O)c(O)c2)cc1 [norbelladine]
HPLC-UV product detection (NpN4OMT2): enzymatic activity was confirmed for all variants using norbelladine as the substrate
HPLC-UV product detection (NpN4OMT4): enzymatic activity was confirmed for all variants using norbelladine as the substrate
HPLC-UV product detection (NpN4OMT5): enzymatic activity was confirmed for all variants using norbelladine as the substrate
